Assay results as given in PMC10641236, “Influenza A virus replication has a stronger dependency on Raf/MEK/ERK signaling pathway activity than SARS-CoV-2” (Frontiers in Cellular and Infection Microbiology, 2023).

Assays:
COVID-19 = conditions: hospitalized COVID-19 patients; ref ClinicalTrials.gov NCT04776044; cited from earlier work
IBV Lee = test system: IBV Lee; set-up: method as in Laure et al., 2020; conditions: medium containing 0.2% BSA, ref Laure et al., 2020; cited from earlier work
TMPRSS2 = TMPRSS2 expression by flow cytometry; type: cell-based, Homo sapiens; conditions: Caco-2 cells, 24 h
Procedure: For flow cytometry analysis, 6 × 10^5 Caco-2 cells were seeded per well in six-well plates (Greiner Bio-One, Kremsmünster, Austria) and incubated for 24 h at 37°C, 5% CO2. Treatment with zapnometinib or a solvent control (1% DMSO) in medium containing 0.2% BSA was applied for 24 h. A single-cell solution was prepared using TrypLE reagent (Thermo Fisher Scientific, Waltham, MA, USA). Prior to staining, cells were treated with an FcR blocking reagent (Miltenyi Biotec, Bergisch Gladbach, Germany) for 10 min at 4°C. The cells were then stained with either a PE Mouse IgG1Isotype control antibody (BioLegend, San Diego, CA, USA) or a PE anti-human TMPRSS2 Antibody (BioLegend, San Diego, CA, USA), followed by a live-dead staining using the LIVE/DEAD™ Fixable Far Red Dead Cell Stain Kit (Thermo Fisher Scientific, Waltham, MA, USA). Cells were analyzed using the BD FACSCanto II flow cytometer (Becton Dickinson, Franklin Lakes, New Jersey, USA) and the FlowJo software (Becton Dickinson, Franklin Lakes, New Jersey, USA).

ERK2 = ERK2 content in cell lysates by WES; type: cell-based, Homo sapiens; conditions: Caco-2 and Calu-3 cell lysates, 24 h of treatment
Procedure: Cells were lysed using cold modified RIPA buffer [0.24% (w/v) tris base (Sigma-Aldrich, St. Louis, Missouri, USA), 0.88% (w/v) NaCl (Carl Roth, Karlsruhe, Germany), 0.2% (v/v) 500 mM ethylenediaminetetraacetic acid (EDTA) (Sigma-Aldrich, St. Louis, Missouri, USA), 1% (v/v) Triton X-100 (Sigma-Aldrich, St. Louis, Missouri, USA), 0.5% (w/v) sodium deoxycholate (Sigma-Aldrich, St. Louis, Missouri, USA), 0.1% (w/v) sodium dodecyl sulfate (SDS) (Carl Roth, Karlsruhe, Germany), 10% (v/v) glycerol (Carl Roth, Karlsruhe, Germany), 0.05% phenylmethylsulfonyl fluoride (PMSF) (Carl Roth, Karlsruhe, Germany), 0.01% Benzonase® Nuclease (Sigma-Aldrich, St. Louis, Missouri, USA), protease inhibitor cocktail (Roche, Basel, Switzerland), and phosphatase inhibitor cocktail (Roche, Basel, Switzerland) in water]. Determination of the protein concentration was performed using the Pierce™ BCA Protein Assay Kit (Thermo Fisher Scientific Inc., Waltham, MA, USA) according to the manufacturer’s instructions. […] Ratios were calculated from the area under the curve of the respective detected signals.

Caco-2 cells = type: cell-based; conditions: human, 24 h
Procedure: (§1) Per well, 2.5 × 10^4 Caco-2 cells or 4 × 10^4 Calu-3 cells were seeded in 96-well plates (Greiner Bio-One, Kremsmünster, Austria) and incubated for 24 h at 37°C, 5% CO2. Cell viability was assessed using a WST-1 assay according to the manufacturer’s recommendations (Roche, Basel, Switzerland). For reference, cell viability was assessed at 0 h and after 24 h of treatment with different concentrations of zapnometinib in medium containing 1% DMSO. The measured cell viability was normalized to the 0-h control. The CC50 value was determined using the “Sigmoidal, 4PL, X is log(concentration)” equation in GraphPad Prism.

Calu-3 cells = type: cell-based; conditions: human, 24 h
Procedure: as §1

## O=C(O)c1ccc(F)c(F)c1Nc1ccc(I)cc1Cl [zapnometinib, 2-(2-chloro-4-iodophenylamino)-N-3,4-difluoro benzoic acid]
COVID-19
  efficacy in terms of the primary endpoint, phase II clinical trial: clinically relevant efficacy profile
  safety profile, phase II clinical trial: favorable safety profile
IBV Lee
  EC50: 4.19 µM
TMPRSS2; 50 µM
  increase of TMPRSS2 expression: 14%
TMPRSS2; 100 µM
  increase of TMPRSS2 expression: 17%
ERK2
  effect on ERK2 content in the cells: does not affect
Caco-2 cells
  CC50: 360 µM
Calu-3 cells
  CC50: 303 µM
